Laboratory results reported in the NIST ThermoML archive (doi:10.1021/je034002l).

Experiment: xn = mol fraction of the nth substance listed
Conditions: 101.3 kPa, Liquid

CCCCCCCl [1-chlorohexane] + CCCCCC
Conditions	mass density [kg/m3]	viscosity [mPa·s]
293.15 K, x1 = 0.1	683.01	0.3403
293.15 K, x1 = 0.15	694.01	0.3532
293.15 K, x1 = 0.2	706.37	0.3669
293.15 K, x1 = 0.3	728.21	0.3965
293.15 K, x1 = 0.5	771.87	0.4691
293.15 K, x1 = 0.7	815.39	0.5662
293.15 K, x1 = 0.9	856.91	0.6932
293.15 K, x1 = 1	878.52	0.7704
298.15 K, x1 = 0.1	678.51	0.3263
298.15 K, x1 = 0.15	689.61	0.3384
298.15 K, x1 = 0.2	701.84	0.352
298.15 K, x1 = 0.3	723.73	0.3794
298.15 K, x1 = 0.5	767.36	0.4464
298.15 K, x1 = 0.7	810.91	0.5367
298.15 K, x1 = 0.9	852.37	0.6495
298.15 K, x1 = 1	873.75	0.7173
303.15 K, x1 = 0.1	673.93	0.313
303.15 K, x1 = 0.15	685.15	0.3245
303.15 K, x1 = 0.2	697.27	0.3377
303.15 K, x1 = 0.3	719.21	0.3632
303.15 K, x1 = 0.5	762.82	0.4254
303.15 K, x1 = 0.7	806.39	0.5094
303.15 K, x1 = 0.9	847.8	0.6103
303.15 K, x1 = 1	868.98	0.6702
308.15 K, x1 = 0.1	669.37	0.2998
308.15 K, x1 = 0.15	680.63	0.3107
308.15 K, x1 = 0.2	692.67	0.3233
308.15 K, x1 = 0.3	714.64	0.3475
308.15 K, x1 = 0.5	758.26	0.4061
308.15 K, x1 = 0.7	801.83	0.4844
308.15 K, x1 = 0.9	843.21	0.5754
308.15 K, x1 = 1	864.21	0.6283
313.15 K, x1 = 0.1	664.73	0.2881
313.15 K, x1 = 0.15	676.04	0.2985
313.15 K, x1 = 0.2	688.03	0.3109
313.15 K, x1 = 0.3	710.03	0.3337
313.15 K, x1 = 0.5	753.66	0.3884
313.15 K, x1 = 0.7	797.24	0.4614
313.15 K, x1 = 0.9	838.59	0.5436
313.15 K, x1 = 1	859.44	0.591
318.15 K, x1 = 0.1	660.04	0.2765
318.15 K, x1 = 0.15	671.39	0.2865
318.15 K, x1 = 0.2	683.36	0.2984
318.15 K, x1 = 0.3	705.37	0.3201
318.15 K, x1 = 0.5	749.03	0.372
318.15 K, x1 = 0.7	792.61	0.4402
318.15 K, x1 = 0.9	833.95	0.5152
318.15 K, x1 = 1	854.67	0.558
323.15 K, x1 = 0.1	655.31	0.266
323.15 K, x1 = 0.15	666.68	0.2755
323.15 K, x1 = 0.2	678.65	0.2868
323.15 K, x1 = 0.3	700.66	0.3076
323.15 K, x1 = 0.5	744.37	0.3569
323.15 K, x1 = 0.7	787.95	0.4208
323.15 K, x1 = 0.9	829.29	0.4899
323.15 K, x1 = 1	849.9	0.5285
328.15 K, x1 = 0.1	650.53	0.256
328.15 K, x1 = 0.15	661.91	0.2652
328.15 K, x1 = 0.2	673.9	0.2759
328.15 K, x1 = 0.3	695.91	0.2959
328.15 K, x1 = 0.5	739.68	0.3428
328.15 K, x1 = 0.7	783.25	0.4027
328.15 K, x1 = 0.9	824.61	0.4666
328.15 K, x1 = 1	845.12	0.5019
333.15 K, x1 = 0.1	645.7	0.2468
333.15 K, x1 = 0.15	657.07	0.2556
333.15 K, x1 = 0.2	669.12	0.2658
333.15 K, x1 = 0.3	691.11	0.2849
333.15 K, x1 = 0.5	734.96	0.3297
333.15 K, x1 = 0.7	778.51	0.3862
333.15 K, x1 = 0.9	819.9	0.4455
333.15 K, x1 = 1	840.35	0.4778
